Publication PMC10629583, “Specific inhibition of an anticancer target, polo-like kinase 1, by allosterically dismantling its mechanism of substrate recognition” (Proceedings of the National Academy of Sciences of the …, 2023)

Key:
PBD1 F559D mutant = biological target: T1, PBD1 F559D mutant (Homo sapiens, UniProt P53350, F559D); assay: FP-based binding/inhibition assay, PBD1 F559D; details: PBD1 F559D at EC85
T1 construct: constructs expressing PBD1 (residues 345–603) WT (pKM7650), F559D (pKM7878); His; TEV site (N); made in house; host or cells: bacteria (E. coli)
Experimental: (§1) FP assays were carried out essentially as described previously ([35], [36]). FITC-conjugated ligands (15 nM) were mixed with PBDs at their EC85 concentrations. All the samples were analyzed approximately 30 min after reaction in a 384-well format using the SpectraMax Paradigm multimode microplate detection platform (Molecular Devices). Data were analyzed after carrying out at least three independent experiments using GraphPad Prism software version 8.
(§2) Fig. S4. Generation of F559 mutants for in vitro and cell-based assays in Fig. 4. (A) SDS-PAGE showing the proteins used for the FP assays in Fig. 4 A and B. CBB, a Coomassie Brilliant Blue– stained gel. (B) Summary of Kd and EC85 values for PBD1 WT and mutants. The Kd values for PBD1 WT and mutants were determined after extrapolating them from the binding curves as the concentration at which 50% of the FITC-Ahx-DPPLHSpTAI-NH2 are PBD1-bound. The EC85 values indicate the effective concentration of 85% of the maximal concentration calculated for each protein. The FP values were obtained 30 minutes after incubation. For the F559K and F559R mutants, we were not able to determine the EC85 values and therefore used 2 µM of these proteins for the assays in Fig. 4B. N.D., not determined. […]

PBD1 F559R mutant = biological target: T2, PBD1 F559R mutant (Homo sapiens, UniProt P53350, F559R); assay: FP-based binding/inhibition assay, PBD1 F559R; details: PBD1 F559R, 2 µM protein
T2 construct: constructs expressing PBD1 (residues 345–603) WT (pKM7650); His; TEV site (N); made in house; host or cells: bacteria (E. coli)
Experimental: as §1, §2

[1] = test system: mGFP-Plk1 F559D at centrosomes, U2OS cells; assay: Confocal quantification of Pendo-mGFP-Plk1 F559D in U2OS cells (siPlk1); assay type: cell-based; details: U2OS siPlk1, 8 μM, 2 or 16 h
Experimental: To corroborate the importance of the F559 residue for Allopole-A binding, U2OS cells expressing endogenous promoter (i.e., Pendo)-controlled mGFP-Plk1 WT or F559D mutant were depleted of endogenous Plk1 by RNAi for 48 h (SI Appendix, Fig. S4C), treated with control DMSO or 8 μM of Allopole for 2 or 16 h, and fixed (SI Appendix, Fig. S4D). Afterward, the level of mGFP fluorescence was quantified using confocal microscopy (Fig. 4 C and D). As expected from the results shown in Fig. 1 C and D, Allopole delocalized mGFP-Plk1 WT from centrosomes within 2 h after treatment, and this effect was sustained for up to 16 h. […] This could be attributable to the fact that unlike PBIP1, which binds to PBD1 through the self-priming and binding mechanism ([49]), Bub1, BubR1, and likely Cdc25C require Cdc2-dependent priming phosphorylation to interact with PBD1 ([42]–[44]). […]
Confocal images of unsaturated fluorescence signals were acquired under the same laser intensity at the 12-bit resolution. Fluorescence intensities for identifiable centrosome and kinetochore signals were quantified after the maximum-intensity projection of z-stacks using the Zeiss ZEN v2.1 software (Carl Zeiss Microscopy, LLC). Data were quantified from three independent experiments.

[2] = test system: Flag-Plk1 F559D interactions with p-PBIP1, p-Bub1, p-BubR1, p-Cdc25C; assay: Coimmunoprecipitation, HeLa cells expressing Flag-Plk1 F559D; assay type: cell-based; details: 20 μM for 2 h, nocodazole + okadaic acid
Experimental: For coimmunoprecipitation analyses shown in Figs. 1C and 4F, HeLa cells stably expressing PCMV-Flag-Plk1 WT (pKM3863) (Fig. 1C) and its respective F559D mutant (pKM7979) (Fig. 4F) were generated using a lentiviral expression system. Prior to harvest, the cells were treated with 600 nM of nocodazole and 300 nM of okadaic acid (OA) for 16 h and 1.5 h, respectively, to enrich the level of phosphorylated proteins and additionally treated with either control DMSO or 20 μM of Allopole for 2 h. Immunoprecipitation was carried out essentially as described previously ([49]) in TBSN buffer [20 mM Tris–Cl (pH 8.0), 150 mM NaCl, 0.5% NP-40, 5 mM EGTA, 2 mM MgCl2, 1.5 mM EDTA, 2 mM DTT, 20 mM p-nitrophenyl phosphate (PNPP), and protease inhibitor cocktail (Roche)] using anti-Flag antibody (Sigma-Aldrich). Immunoprecipitates were separated by sodium dodecyl sulfate–polyacrylamide gel electrophoresis (SDS-PAGE) and then immunoblotted according to standard procedures using an enhanced chemiluminescence detection system (Thermo Fisher Scientific). The antibodies that were used to detect specific indicated proteins in Fig. 1C are listed in SI Appendix, Table S6.

[3] = test system: U2OS cells expressing Pendo-mGFP-Plk1 WT; assay: MTS proliferation assay, U2OS Plk1 RNAi cells expressing WT Plk1; assay type: cell-based; details: WT Plk1, 3 to 6 μM, 36 h
Experimental: Cell viability was determined using the […] CellTiter 96® AQueous One Solution Cell Proliferation Assay (MTS) kit (Promega) containing a tetrazolium compound [3-(4,5-dimethylthiazol-2-yl)-5-(3-carboxymethoxy-phenyl)-2-(4-sulfophenyl)-2H-tetrazolium, inner salt (MTS)] and an electron-coupling phenazine ethosulfate. For the MTS assays in Fig. 1B, L363 cells cultured in a 96-well plate were treated with the indicated compounds for 48 h (the final volume of 100 μL). After the compound treatment, cells were additionally treated with 20 μL of the MTS solution and incubated at 37 °C for 2 to 4 h in a humidified 5% CO2 atmosphere. The absorbance of the resulting sample was measured at 490 nm using a PerkinElmer EnSpire Multimode 96-well plate reader. For the MTS assays in Fig. 4E, U2OS cells stably expressing either Pendo-mGFP-Plk1 WT or F559D were seeded at approximately 5,000 cells/well in a 96-well plate, depleted of endogenous Plk1 by RNAi, and then treated with either control DMSO or Allopole as indicated in the schematic diagram in SI Appendix, Fig. S4E.

T2 sequence (P53350 345-603 F559R): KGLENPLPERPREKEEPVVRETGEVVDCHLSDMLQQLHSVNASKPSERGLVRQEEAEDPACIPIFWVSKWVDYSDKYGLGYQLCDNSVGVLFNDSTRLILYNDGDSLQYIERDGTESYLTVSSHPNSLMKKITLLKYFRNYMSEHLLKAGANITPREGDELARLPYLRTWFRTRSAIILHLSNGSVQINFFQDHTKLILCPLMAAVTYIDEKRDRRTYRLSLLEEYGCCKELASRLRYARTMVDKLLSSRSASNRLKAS
T1 sequence (P53350 345-603 F559D): as the sequence (P53350 345-603 F559R) above, with R215D counted along it

Compound	Inhibition of FITC-phosphopeptide binding (in words) (PBD1 F559D mutant)	Inhibition of FITC-phosphopeptide binding (in words) (PBD1 F559R mutant)	Level of centrosome-localized mGFP-Plk1 F559D (in words) [1]	Phosphoproteins coprecipitating with Flag-Plk1 F559D (in words) [2]	Proliferation rate (in words) [3]
O=c1c2sc(Cl)cc2n2c(=S)[nH]nc2n1CC1CC1 [Allopole-A]	failed to inhibit	failed to inhibit			
Cn1cnc([N+](=O)[O-])c1Sc1nnc2n(CC3CC3)c(=O)c3sc(Cl)cc3n12 [Allopole]			failed to alter the level	coimmunoprecipitated p-PBIP1, p-Bub1, p-BubR1, and p-Cdc25C effectively	significant reduction in their proliferation rate
